Laboratory results from patent publication US20070155835A1, “USE OF ORTHO-PH[…]/OR DERIVATIVES THEREOF FOR INHIBITING THE ASEXUAL REPRODUCTION OF FUNGI” (Henkel Kommanditgesellschaft auf Aktien (Henkel KGaA), priority 2004, published 2007).

Tests used:
[1] = test system: Aspergillus niger (DSM1988); test: Growth of the test strain on wort agar plates containing active substance; type: cell-based
Protocol: The surfaces of wort agar plates were each contaminated with 100 μl of a germ suspension (10^3 CFU/ml) of Aspergillus niger (DSM1988). Different quantities of active substance (solutions in ethanol, see table for final concentrations) had previously been added to the agar plates. The plates were incubated for 3 days at 25° C. Sporulation was assessed visually, and the sporulation rate (in %) was determined. […] A growth-inhibiting or germ-killing effect occurred only at a concentration of 0.05 wt % OPP.
(§1) The surfaces of wort agar plates were each contaminated with 100 μl of a germ suspension (10^3 CFU/ml) of Aspergillus niger (DSM1988). Different quantities of active substance (solutions in ethanol, see table for final concentrations) had previously been added to the agar plates. The plates were incubated for 3 days at 25° C. Sporulation was assessed visually, and the sporulation rate (in %) was determined.

[2] = test system: Aspergillus niger (DSM1988); test: Sporulation of Aspergillus niger on wort agar plates containing active substance, assessed visually; type: cell-based
Protocol: as §1, §1

Ortho-Phenylphenol/Silicic Acid Ester [OPP/SAE]
Effect of the concentrations used on growth of the test strain ([1]; concentrations of the tables, unless otherwise indicated in the tables): did not prevent growth of the test strain | Sporulation [%] ([2]; OPP/SEA concentration 0.00001 %, wort agar, 3 days at 25° C.): 95% | Sporulation [%] ([2]; OPP/SEA concentration 0.00005 %, wort agar, 3 days at 25° C.): 95% | Sporulation [%] ([2]; OPP/SEA concentration 0.0001 %, wort agar, 3 days at 25° C.): 95% | Sporulation [%] ([2]; OPP/SEA concentration 0.0005 %, wort agar, 3 days at 25° C.): 50% | Sporulation [%] ([2]; OPP/SEA concentration 0.001 %, wort agar, 3 days at 25° C.): 25% | Sporulation [%] ([2]; OPP/SEA concentration 0.005 %, wort agar, 3 days at 25° C.): 0% | Sporulation [%] ([2]; OPP/SEA concentration 0.01 %, wort agar, 3 days at 25° C.): 0% | Utilization concentration at which sporulation was completely suppressed ([2]; wort agar, 3 days at 25° C.): 0.005 wt %

CC(C)=CCCC(C)=CCCC(C)=CCO [Farnesol, reference compound]
Sporulation [%] ([2]; Farnesol concentration 25 μM, comparative experiment): 90% | Sporulation [%] ([2]; Farnesol concentration 62.5 μM, comparative experiment): 75% | Sporulation [%] ([2]; Farnesol concentration 125 μM, comparative experiment): 50% | Sporulation [%] ([2]; Farnesol concentration 250 μM, comparative experiment): 10% | Sporulation [%] ([2]; Farnesol concentration 500 μM, comparative experiment): 0%

Oc1ccccc1-c1ccccc1 [OPP, Ortho-Phenylphenol]
Concentration at which a growth-inhibiting or germ-killing effect occurred ([1]; wort agar, 3 days at 25° C.): 0.05 wt % | Sporulation [%] ([2]; OPP concentration 0.00001 %, wort agar, 3 days at 25° C.): 95% | Sporulation [%] ([2]; OPP concentration 0.00005 %, wort agar, 3 days at 25° C.): 95% | Sporulation [%] ([2]; OPP concentration 0.0001 %, wort agar, 3 days at 25° C.): 85% | Sporulation [%] ([2]; OPP concentration 0.0005 %, wort agar, 3 days at 25° C.): 10% | Sporulation [%] ([2]; OPP concentration 0.001 %, wort agar, 3 days at 25° C.): 0% | Sporulation [%] ([2]; OPP concentration 0.005 %, wort agar, 3 days at 25° C.): 0% | Sporulation [%] ([2]; OPP concentration 0.05 %, wort agar, 3 days at 25° C.): no growth | Sporulation [%] ([2]; OPP concentration 0.1 %, wort agar, 3 days at 25° C.): no growth | Sporulation [%] ([2]; OPP concentration 1.0 %, wort agar, 3 days at 25° C.): no growth | Concentration completely suppressing sporulation relative to growth-inhibiting or germ-killing concentration ([2]; no growth-inhibiting effect at that concentration): fifty times lower | Utilization concentration at which sporulation was completely suppressed ([2]; wort agar, 3 days at 25° C.): 0.001 wt %
